In experiment [1] the test system is Hyaluronic Acid Synthase 2 (HAS2). Kind of experiment: RNA-Seq gene expression of HAS2 in dermal fibroblasts. It counts as cell-based, Human. As to conditions: 100 μg/ml, 24 hr. On the procedure:
(§1) Cell Lines. Human adult dermal fibroblast and keratinocyte cell lines were treated with 11 different compound treatments (plus DMSO control as treatment #12). Primary cells were plated in cell specific media at 5K or 10K cells per cm^2. Cells were plated in 48 well plates in triplicate, one cell line per plate. Media volume was 500ul per well. Outer two columns of wells were not used. Cells were cultured for 2 days in 37° C. 5% CO2 incubator. After 48 hours all the cell cultures were uniform and appeared healthy, no appreciable number of floating dead cells or evidence of vacuolization of cells that might indicate apoptotic or dying cells.
(§2) Compounds. Stocks of compounds 1 through 8 on the list below were prepared in PBS at 100× the concentration indicated in red type. […] This stock was 100× of final concentration. A 20 mg/ml stock of compound 10 (CBD) was prepared in DMSO. […]
(§3) RNA lysate preparation. […] All samples were shipped frozen on dry ice for RNA extraction, library construction and sequencing to 25 M paired end 100 bp reads per sample.
(§4) RNA-Seq. All the RNA samples were shipped frozen on dry ice for RNA extraction, library construction and sequencing to 25 M paired end 100 bp reads per sample. Differentially expressed genes were identified and pathway enrichment was assessed using the Reactome Pathway.

A further experiment concerns Hyaluronidase 2 (HYAL2). As to the kind of experiment: RNA-Seq gene expression of HYAL2 in keratinocytes. The format is cell-based, Human. As to conditions: 100 μg/ml, 24 hr. The procedure:
as §1, §2, §3, §4

The subject of the next experiment is Human dermal fibroblasts. As to the kind of experiment: Octapeptide dose-response of high MW HA production (band density). It counts as cell-based. As to conditions: 72 hours. On the procedure:
Human dermal fibroblasts were treated with Octapeptide (1× and 10×; corresponding to 10 μg/ml and 100 μg/ml respectively) or left untreated. After 72 hours, the supernatant was collected, concentrated, run on an SDS-PAGE, stained and imaged. The experiment was conducted 4 times and the density of the bands from each supernatant were quantified (arbitrary units (AU)) using ImageJ. The data was graphed in FIG. 6 and represents the mean±standard deviation of the band densities for each treatment condition.

For experiment [2], the system named is Early Growth Response 3 (EGR3). Kind of experiment: RNA-Seq gene expression of EGR3 in keratinocytes. The format is cell-based, Human. As to conditions: 100 μg/ml, 24 hr. On the procedure:
as §1, §2, §3, §4

Experiment [3] relates to Hyaluronic Acid Synthase 2 (HAS2). Kind of experiment: RNA-Seq gene expression of HAS2 in keratinocytes. As to conditions: 100 μg/ml, 24 hr. It counts as cell-based, Human. The procedure: as §1, §2, §3, §4

Regarding “Octapeptide: proprietary peptide designed by Alastin; in some embodiments octapeptide-45, amino acid sequence GPHGVREA (Gly-Pro-His-Gly-Val-Arg-Glu-Ala)”, the “fold-change in HAS2 gene expression relative to non-treated cells” value in experiment [1] was “excellent stimulation”. Moreover, in the experiment with Hyaluronidase 2 (HYAL2), the “fold-change in HYAL2 gene expression relative to non-treated cells” value was “modest downregulation”. Further, the “production of high MW HA in dermal fibroblasts” value in the experiment on Human dermal fibroblasts (1× and 10× (10 μg/ml and 100 μg/ml)) was “dose-responsive increase”. Moreover, the “density of high MW HA band (ImageJ)” value in the experiment with Human dermal fibroblasts (10× Octapeptide (100 μg/ml), 4 experiments) is given as “vast increase in signal density”.
On to Hexapeptide-11, for which the “upregulation of EGR3 gene expression relative to non-treated cells” value in experiment [2] is on record as “about seven”. For the same substance, in experiment [3], the “fold-change in HAS2 gene expression relative to non-treated cells” value is recorded as “excellent upregulation”. In the experiment with Hyaluronidase 2 (HYAL2), the “fold-change in HYAL2 gene expression relative to non-treated cells” value is on record as “potent downregulation”.

Source of the values: patent publication US20250032532A1, “COMBINATION OF OCTAPEPTIDE AND HIGH MOLECULAR WEIGHT HYALURONIC ACID FOR TOPICAL APPLICATION” (Alastin Skincare, Inc., priority 2022, published 2025).
